Test results as given in paper PMC11571207, “Stereorandomized Oncocins with Preserved Ribosome Binding and Antibacterial Activity” (Journal of Medicinal Chemistry, 2024).
Converted amounts (≈) assume the structure as drawn. Non-standard residues stand in square brackets, D forms with d. Residues, ends and D or L forms follow the SMILES beside them.

Legend:
A. baumannii ATCC19606 = assay: microbe, parasite or virus in culture; details: for MIC A. baumannii, 12.5% MHB / MIC A. baumannii, Full MHB: A. baumannii ATCC19606, 16–20 h at 37 °C; for MIC A. baumannii, 12.5% MHB: 12.5% Müller–Hinton medium; for MIC A. baumannii, Full MHB: full Müller–Hinton medium; for MIC A. baumannii ATCC19606: supplement CSV
From the text: (§1) We tested antibacterial effects against the Gram-negative bacteria Escherichia coli, Klebsiella pneumoniae, Pseudomonas aeruginosa, and Acinetobacter baumannii and the Gram-positive methicillin-resistant Staphylococcus aureus (MRSA).
(§2) Bacterial growth assay (Figure S1), transmission electron microscopy (Figure S6), serum stability assay (Figure S7), circular dichroism spectral recording (Figures S8 and S9), antimicrobial and hemolysis activity assays (MIC and MHC), and vesicle leakage assay were carried out as described in earlier publications.[43],[44]
(§3) Minimum inhibitory concentration assay
(§4) Antimicrobial activity was assayed against P. aeruginosa PAO1, K. pneumoniae NCTC418, E. coli W3110, A. baumannii ATCC 19606, methicillin-resistant S. aureus COL (MRSA), and for selected peptides on P. aeruginosa PA14 and the polymyxin-B-resistant derivative PA14 2P4, as well as the clinical isolates ZEM-1A and ZEM9A, K. pneumoniae OXA-48, S. aureus Newman, Enterobacter cloacae and Burkholderia cenocepacia. The minimal inhibitory concentration (MIC) was determined by using broth microdilution method. A colo ny of bacteria was picked and grown in Luria-Bertani (LB) medium overnight at 37°C. For E. coli BW25113 sbmA::kan the medium was supplemented with 25 mg/L of kanamycin. The next day, the culture was then regrown in LB medium to log phase (OD600 = 0.6 to 0.8), which lasted approximately 4 h, and diluted to an OD600 of 0.022 in the desired medium. Stock solutions of 1 mg/mL of the samples were prepared in sterilized milliQ water and diluted to the beginning concentration of 64 μg/mL in 300 μL Mueller Hinton (MH)-medium. The diluted samples were added to first well of 96-well microtiter plate (TPP, untreated, Faust Laborbedarf, AG, Schaffhausen) and diluted serially by ½. Finally, 4 μL of the bacterial suspension was inoculated into the sample solutions (150 μL/well) with a final inoculation of about 5∙10^5 CFU/mL. The plates were then incubated at 37°C for 15-18h. For each assay, sterility (broth only) and growth control (broth with bacterial inoculum, without antibiotics) were checked with two columns in the plate. The next day, 15 μL of 3-(4,5-dimethylthiazol-2-yl)-2,5-diphenyltetrazolium bromide (MTT) was added to each well of the plate, such a way that MIC was defined as the lowest concentration of the peptide that inhibited visible growth of the tested

E. coli W3110 = assay: microbe, parasite or virus in culture; details: for MIC E. coli, 12.5% MHB / MIC E. coli, Full MHB: E. coli W3110, 16–20 h at 37 °C, broth microdilution; for MIC E. coli, 12.5% MHB: 12.5% Müller–Hinton medium; for MIC E. coli, Full MHB: full Müller–Hinton medium; for MIC E. coli W3110: supplement CSV
From the text: as §1, §2, §3, §4

K. pneumoniae NCTC 418 = assay: microbe, parasite or virus in culture; details: for MIC K. pneumoniae, 12.5% MHB / MIC K. pneumoniae, Full MHB: K. pneumoniae NCTC 418, 16–20 h at 37 °C; for MIC K. pneumoniae, 12.5% MHB: 12.5% Müller–Hinton medium; for MIC K. pneumoniae, Full MHB: full Müller–Hinton medium; for MIC K. pneumoniae NCTC418: supplement CSV
From the text: as §1, §2, §3, §4

P. aeruginosa PAO1 = assay: microbe, parasite or virus in culture; details: for MIC P. aeruginosa, 12.5% MHB / MIC P. aeruginosa, Full MHB: P. aeruginosa PAO1, 16–20 h at 37 °C; for MIC P. aeruginosa, 12.5% MHB: 12.5% Müller–Hinton medium; for MIC P. aeruginosa, Full MHB: full Müller–Hinton medium; for MIC P. aeruginosa PAO1: supplement CSV
From the text: as §1, §2, §3, §4

S. aureus COL (MRSA) = assay: microbe, parasite or virus in culture; details: for MIC S. aureus, 12.5% MHB / MIC S. aureus, Full MHB: S. aureus COL (MRSA), 16–20 h at 37 °C; for MIC S. aureus, 12.5% MHB: 12.5% Müller–Hinton medium; for MIC S. aureus, Full MHB: full Müller–Hinton medium; for MIC S. aureus COL (MRSA): supplement CSV
From the text: as §1, §2, §3, §4

human red blood cells = assay: Hemolysis assay, minimum hemolytic concentration; details: for Haemolysis on hRBC, MHC: 2.5% human red blood cells (final) in 10 mM phosphate, 150 mM NaCl, pH 7.4, 25 °C, 4 h, visual inspection; for MHC human red blood cells: supplement CSV

For `CC[C@H](C)[C@H](NC(=O)[C@H](CCCNC(=N)N)NC(=O)[C@H](CCCNC(=N)N)NC(=O)[C@@H]1CCCN1C(=O)[C@@H]1CCCN1C(=O)[C@H](CCCNC(=N)N)NC(=O)[C@@H]1CCCN1C(=O)[C@H](CCCNC(=N)N)NC(=O)[C@@H]1CCCN1C(=O)[C@H](CC(C)C)NC(=O)[C@@H](Cc1ccc(O)cc1)NC(=O)[C@@H]1CCCN1C(=O)[C@@H]1CCCN1C(=O)[C@H](CCCCN)NC(=O)[C@H](CC(=O)O)NC(=O)[C@@H](N)C(C)C)C(=O)N[C@@H](Cc1ccc(O)cc1)C(=O)N[C@@H](CC(N)=O)C(=O)N[C@@H](CCCNC(=N)N)C(N)=O` [DY6-Onc] (H-VDKPP[dY]LPRPRPPRRIYNR-NH2), the “MIC A. baumannii, 12.5% MHB” value (A. baumannii ATCC19606) was 16 µg/mL (≈ 6.69 µM), the “MIC A. baumannii, Full MHB” value (A. baumannii ATCC19606) was greater than 64 µg/mL and the “MIC A. baumannii ATCC19606” value (A. baumannii ATCC19606; 12.5% MH pH 7.4) was 16 µg/mL (≈ 6.69 µM). The “MIC A. baumannii ATCC19606” value (A. baumannii ATCC19606; full MH pH 7.4) was greater than 64 µg/mL, the “MIC E. coli, 12.5% MHB” value (E. coli W3110) was 4 µg/mL (≈ 1.67 µM) and the “MIC E. coli, Full MHB” value (E. coli W3110) was 16 µg/mL (≈ 6.69 µM). For the same compound, the “MIC E. coli W3110” value (E. coli W3110; 12.5% MH pH 7.4) was 4 µg/mL (≈ 1.67 µM), the “MIC E. coli W3110” value (E. coli W3110; full MH pH 7.4) was 16 µg/mL (≈ 6.69 µM) and the “MIC K. pneumoniae, 12.5% MHB” value (K. pneumoniae NCTC 418) was 4 µg/mL (≈ 1.67 µM). For the same compound, the “MIC K. pneumoniae, Full MHB” value (K. pneumoniae NCTC 418) was 8 µg/mL (≈ 3.35 µM), the “MIC K. pneumoniae NCTC418” value (K. pneumoniae NCTC 418; 12.5% MH pH 7.4) was 4 µg/mL (≈ 1.67 µM) and the “MIC K. pneumoniae NCTC418” value (K. pneumoniae NCTC 418; full MH pH 7.4) was 8 µg/mL (≈ 3.35 µM). The “MIC P. aeruginosa, 12.5% MHB” value (P. aeruginosa PAO1) was 16 µg/mL (≈ 6.69 µM), the “MIC P. aeruginosa, Full MHB” value (P. aeruginosa PAO1) was greater than 64 µg/mL and the “MIC P. aeruginosa PAO1” value (P. aeruginosa PAO1; 12.5% MH pH 7.4) was 16 µg/mL (≈ 6.69 µM). For the same compound, the “MIC P. aeruginosa PAO1” value (P. aeruginosa PAO1; full MH pH 7.4) was greater than 64 µg/mL, the “MIC S. aureus, 12.5% MHB” value (S. aureus COL (MRSA)) was >64 / 64 μg/mL and the “MIC S. aureus, Full MHB” value (S. aureus COL (MRSA)) was >64 / 64 μg/mL. For the same compound, the “MIC S. aureus COL (MRSA)” value (S. aureus COL (MRSA); 12.5% MH pH 7.4) was 64 µg/mL (≈ 26.8 µM), the “MIC S. aureus COL (MRSA)” value (S. aureus COL (MRSA); full MH pH 7.4) was greater than 64 µg/mL and the “Haemolysis on hRBC, MHC” value (human red blood cells) was greater than 1000 µg/mL. For the same compound, the “MHC human red blood cells” value (human red blood cells) was greater than 1000 µg/mL.
For `CC[C@@H](C)[C@@H](NC(=O)[C@@H](CCCNC(=N)N)NC(=O)[C@@H](CCCNC(=N)N)NC(=O)[C@H]1CCCN1C(=O)[C@H]1CCCN1C(=O)[C@H](CCCNC(=N)N)NC(=O)[C@@H]1CCCN1C(=O)[C@H](CCCNC(=N)N)NC(=O)[C@@H]1CCCN1C(=O)[C@H](CC(C)C)NC(=O)[C@H](Cc1ccc(O)cc1)NC(=O)[C@@H]1CCCN1C(=O)[C@@H]1CCCN1C(=O)[C@H](CCCCN)NC(=O)[C@H](CC(=O)O)NC(=O)[C@@H](N)C(C)C)C(=O)N[C@H](Cc1ccc(O)cc1)C(=O)N[C@H](CC(N)=O)C(=O)N[C@H](CCCNC(=N)N)C(N)=O` [D8Cterm-Onc] (H-VDKPPYLPRPR[dP][dP][dR][dR][dI][dY][dN][dR]-NH2), the “MIC A. baumannii, 12.5% MHB” value (A. baumannii ATCC19606) was 8 µg/mL (≈ 3.35 µM), the “MIC A. baumannii, Full MHB” value (A. baumannii ATCC19606) was 64 µg/mL (≈ 26.8 µM) and the “MIC A. baumannii ATCC19606” value (A. baumannii ATCC19606; 12.5% MH pH 7.4) was 8 µg/mL (≈ 3.35 µM). For the same compound, the “MIC A. baumannii ATCC19606” value (A. baumannii ATCC19606; full MH pH 7.4) was 64 µg/mL (≈ 26.8 µM), the “MIC E. coli, 12.5% MHB” value (E. coli W3110) was 1 µg/mL (≈ 0.418 µM) and the “MIC E. coli, Full MHB” value (E. coli W3110) was 16 µg/mL (≈ 6.69 µM). The “MIC E. coli W3110” value (E. coli W3110; 12.5% MH pH 7.4) was 1 µg/mL (≈ 0.418 µM), the “MIC E. coli W3110” value (E. coli W3110; full MH pH 7.4) was 16 µg/mL (≈ 6.69 µM) and the “MIC K. pneumoniae, 12.5% MHB” value (K. pneumoniae NCTC 418) was 2 µg/mL (≈ 0.837 µM). For the same compound, the “MIC K. pneumoniae, Full MHB” value (K. pneumoniae NCTC 418) was 4 µg/mL (≈ 1.67 µM), the “MIC K. pneumoniae NCTC418” value (K. pneumoniae NCTC 418; 12.5% MH pH 7.4) was 2 µg/mL (≈ 0.837 µM) and the “MIC K. pneumoniae NCTC418” value (K. pneumoniae NCTC 418; full MH pH 7.4) was 4 µg/mL (≈ 1.67 µM). The “MIC P. aeruginosa, 12.5% MHB” value (P. aeruginosa PAO1) was 4 µg/mL (≈ 1.67 µM), the “MIC P. aeruginosa, Full MHB” value (P. aeruginosa PAO1) was greater than 64 µg/mL and the “MIC P. aeruginosa PAO1” value (P. aeruginosa PAO1; 12.5% MH pH 7.4) was 4 µg/mL (≈ 1.67 µM). For the same compound, the “MIC P. aeruginosa PAO1” value (P. aeruginosa PAO1; full MH pH 7.4) was greater than 64 µg/mL, the “MIC S. aureus, 12.5% MHB” value (S. aureus COL (MRSA)) was >64 / 64 μg/mL and the “MIC S. aureus, Full MHB” value (S. aureus COL (MRSA)) was >64 / 64 μg/mL. For the same compound, the “MIC S. aureus COL (MRSA)” value (S. aureus COL (MRSA); 12.5% MH pH 7.4) was 64 µg/mL (≈ 26.8 µM), the “MIC S. aureus COL (MRSA)” value (S. aureus COL (MRSA); full MH pH 7.4) was greater than 64 µg/mL and the “Haemolysis on hRBC, MHC” value (human red blood cells) was greater than 1000 µg/mL. The “MHC human red blood cells” value (human red blood cells) was greater than 1000 µg/mL.
